Legend:
MOLT-4 = assay: NCI-60 one-dose screen, MOLT-4; assay type: cell-based; settings: Homo sapiens; MOLT-4, leukaemia; single dose 10 μM; read-out: Growth inhibition %
Procedure: (§1) Anti-proliferative effects of the counterparts 4a–g and 5a–g were screened against 60 human cancer cell lines, following the Developmental Therapeutics Program protocol, National Cancer Institute[35].
(§2) The anti-tumour activity of the fourteen synthesised congeners was investigated at the NCI against a panel of 60 cancer cell lines (NCI-60 Cell One-Dose Screen). The tested dibenzo[b,f]azepine derivatives were screened at a single dose level (10 μM), Table 1.

RPMI-8226 = assay: NCI-60 one-dose screen, RPMI-8226; assay type: cell-based; settings: Homo sapiens; RPMI-8226, leukaemia; single dose 10 μM; read-out: Growth inhibition %
Procedure: as §1, §2

SR = assay: NCI-60 one-dose screen, SR; assay type: cell-based; settings: Homo sapiens, leukaemia, single dose 10 μM, read-out: Growth inhibition %
Procedure: as §1, §2

EKVX = assay: NCI-60 one-dose screen, EKVX; assay type: cell-based; settings: Homo sapiens, non-small cell lung cancer, single dose 10 μM, read-out: Growth inhibition %
Procedure: as §1, §2

HOP-92 = assay: NCI-60 one-dose screen, HOP-92; assay type: cell-based; settings: Homo sapiens; HOP-92, non-small cell lung cancer; single dose 10 μM; read-out: Growth inhibition %
Procedure: as §1, §2

NCI-H460 = assay: NCI-60 one-dose screen, NCI-H460; assay type: cell-based; settings: Homo sapiens; NCI-H460, non-small cell lung cancer; single dose 10 μM; read-out: Growth inhibition %
Procedure: as §1, §2

NCI-H522 = assay: NCI-60 one-dose screen, NCI-H522; assay type: cell-based; settings: Homo sapiens; NCI-H522, non-small cell lung cancer; single dose 10 μM; read-out: Growth inhibition %
Procedure: as §1, §2

HCC-2998 = assay: NCI-60 one-dose screen, HCC-2998; assay type: cell-based; settings: Homo sapiens; HCC-2998, colon cancer; single dose 10 μM; read-out: Growth inhibition %
Procedure: as §1, §2

HCT-116 = assay: NCI-60 one-dose screen, HCT-116; assay type: cell-based; settings: Homo sapiens; HCT-116, colon cancer; single dose 10 μM; read-out: Growth inhibition %
Procedure: as §1, §2

SNB-19 = assay: NCI-60 one-dose screen, SNB-19; assay type: cell-based; settings: Homo sapiens; SNB-19, CNS cancer; single dose 10 μM; read-out: Growth inhibition %
Procedure: as §1, §2

U251 = assay: NCI-60 one-dose screen, U251; assay type: cell-based; settings: Homo sapiens, U-251; U251, CNS cancer; single dose 10 μM; read-out: Growth inhibition %
Procedure: as §1, §2

MDA-MB-435 = assay: NCI-60 one-dose screen, MDA-MB-435; assay type: cell-based; settings: Homo sapiens; MDA-MB-435, melanoma; single dose 10 μM; read-out: Growth inhibition %
Procedure: as §1, §2

SK-MEL-28 = assay: NCI-60 one-dose screen, SK-MEL-28; assay type: cell-based; settings: Homo sapiens; SK-MEL-28, melanoma; single dose 10 μM; read-out: Growth inhibition %
Procedure: as §1, §2

UACC-62 = assay: NCI-60 one-dose screen, UACC-62; assay type: cell-based; settings: Homo sapiens; UACC-62, melanoma; single dose 10 μM; read-out: Growth inhibition %
Procedure: as §1, §2

IGROV1 = assay: NCI-60 one-dose screen, IGROV1; assay type: cell-based; settings: Homo sapiens, IGROV-1; IGROV1, ovarian cancer; single dose 10 μM; read-out: Growth inhibition %
Procedure: as §1, §2

OVCAR-5 = assay: NCI-60 one-dose screen, OVCAR-5; assay type: cell-based; settings: Homo sapiens; OVCAR-5, ovarian cancer; single dose 10 μM; read-out: Growth inhibition %
Procedure: as §1, §2

NCI/ADR-RES = assay: NCI-60 one-dose screen, NCI/ADR-RES; assay type: cell-based; settings: Homo sapiens, ovarian cancer, single dose 10 μM, read-out: Growth inhibition %
Procedure: as §1, §2

786-0 = assay: NCI-60 one-dose screen, 786-0; assay type: cell-based; settings: Homo sapiens; 786-0, renal cancer; single dose 10 μM; read-out: Growth inhibition %
Procedure: as §1, §2

SN12C = assay: NCI-60 one-dose screen, SN12C; assay type: cell-based; settings: Homo sapiens, renal cancer, single dose 10 μM, read-out: Growth inhibition %
Procedure: as §1, §2

TK-10 = assay: NCI-60 one-dose screen, TK-10; assay type: cell-based; settings: Homo sapiens; TK-10, renal cancer; single dose 10 μM; read-out: Growth inhibition %
Procedure: as §1, §2

UO-31 = assay: NCI-60 one-dose screen, UO-31; assay type: cell-based; settings: Homo sapiens; UO-31, renal cancer; single dose 10 μM; read-out: Growth inhibition %
Procedure: as §1, §2

PC-3 = assay: NCI-60 one-dose screen, PC-3; assay type: cell-based; settings: Homo sapiens; PC-3, prostate cancer; single dose 10 μM; read-out: Growth inhibition %
Procedure: as §1, §2

MCF-7 = assay: NCI-60 one-dose screen, MCF-7; assay type: cell-based; settings: Homo sapiens, MCF7; MCF-7, breast cancer; single dose 10 μM; read-out: Growth inhibition %
Procedure: as §1, §2

| SMILES | inhibition at 10 µM (MOLT-4) [%] | inhibition at 10 µM (RPMI-8226) [%] | inhibition at 10 µM (SR) [%] | inhibition at 10 µM (EKVX) [%] | inhibition at 10 µM (HOP-92) [%] | inhibition at 10 µM (NCI-H460) [%] | inhibition at 10 µM (NCI-H522) [%] | inhibition at 10 µM (HCC-2998) [%] | inhibition at 10 µM (HCT-116) [%] | inhibition at 10 µM (SNB-19) [%] | inhibition at 10 µM (U251) [%] | inhibition at 10 µM (MDA-MB-435) [%] | inhibition at 10 µM (SK-MEL-28) [%] | inhibition at 10 µM (UACC-62) [%] | inhibition at 10 µM (IGROV1) [%] | inhibition at 10 µM (OVCAR-5) [%] | inhibition at 10 µM (NCI/ADR-RES) [%] | inhibition at 10 µM (786-0) [%] | inhibition at 10 µM (SN12C) [%] | inhibition at 10 µM (TK-10) [%] | also measured |
| --- | --- | --- | --- | --- | --- | --- | --- | --- | --- | --- | --- | --- | --- | --- | --- | --- | --- | --- | --- | --- | --- |
| O=C(NNC(=O)N1c2ccccc2C=Cc2ccccc21)c1ccc([N+](=O)[O-])cc1 [Compound 4e, N′-(4-Nitrobenzoyl)-5H-dibenzo[b,f]azepine-5-carbohydrazide] | < 10 | < 10 | < 10 | < 10 | < 10 | < 10 | < 10 | < 10 | < 10 | < 10 | < 10 | < 10 | < 10 | < 10 | < 10 | < 10 | < 10 | < 10 | < 10 | 10 | inhibition at 10 µM (UO-31): < 10%; inhibition at 10 µM (PC-3): < 10%; inhibition at 10 µM (MCF-7): < 10%; melting point: 241 to 243 °C |
| Cc1ccc(C(=O)NNC(=O)N2c3ccccc3C=Cc3ccccc32)cc1 [Compound 4d, N′-(4-Methylbenzoyl)-5H-dibenzo[b,f]azepine-5-carbohydrazide] | < 10 | < 10 | < 10 | < 10 | < 10 | < 10 | < 10 | < 10 | < 10 | < 10 | < 10 | < 10 | < 10 | < 10 | < 10 | < 10 | < 10 | < 10 | < 10 | 10.3 | inhibition at 10 µM (UO-31): < 10%; inhibition at 10 µM (PC-3): < 10%; inhibition at 10 µM (MCF-7): < 10%; melting point: 151 to 153 °C |
| O=C(Cc1ccccc1)NNC(=O)N1c2ccccc2C=Cc2ccccc21 [Compound 4g, N′-(2-Phenylacetyl)-5H-dibenzo[b,f]azepine-5-carbohydrazide] | < 10 | < 10 | < 10 | 13.8 | < 10 | < 10 | < 10 | < 10 | < 10 | < 10 | < 10 | < 10 | < 10 | < 10 | < 10 | < 10 | < 10 | < 10 | < 10 | < 10 | inhibition at 10 µM (UO-31): < 10%; inhibition at 10 µM (PC-3): < 10%; inhibition at 10 µM (MCF-7): < 10%; melting point: 134 to 136 °C |
| O=C(NNC(=O)N1c2ccccc2C=Cc2ccccc21)c1ccc(Br)cc1 [Compound 4b, N′-(4-Bromobenzoyl)-5H-dibenzo[b,f]azepine-5-carbohydrazide] | < 10 | < 10 | < 10 | < 10 | < 10 | < 10 | < 10 | < 10 | < 10 | < 10 | < 10 | < 10 | < 10 | < 10 | < 10 | < 10 | < 10 | 21.1 | < 10 | < 10 | inhibition at 10 µM (UO-31): < 10%; inhibition at 10 µM (PC-3): < 10%; inhibition at 10 µM (MCF-7): < 10%; melting point: 237 to 239 °C |
| O=C(NNC(=O)N1c2ccccc2C=Cc2ccccc21)c1ccc(Cl)cc1 [Compound 4c, N′-(4-Chlorobenzoyl)-5H-dibenzo[b,f]azepine-5-carbohydrazide] | < 10 | < 10 | < 10 | < 10 | < 10 | < 10 | < 10 | < 10 | < 10 | < 10 | < 10 | < 10 | < 10 | < 10 | < 10 | < 10 | < 10 | < 10 | < 10 | 13.2 | inhibition at 10 µM (UO-31): < 10%; inhibition at 10 µM (PC-3): < 10%; inhibition at 10 µM (MCF-7): < 10%; melting point: 229 to 231 °C |

Reference: PMC9848257, “Design and synthesis of novel rigid dibenzo[b,f]azepines through ring closure technique as promising anticancer candidates against leukaemia and acting as selective topoisomerase II inhibitors and DNA intercalators” (Journal of Enzyme Inhibition and Medicinal Chemistry, 2023)
